Measurements reported in patent US20030050302A1, “Treatment of conditions associated with amyloid processing using PKC activators” (Neurologic, Inc., priority 2000, published 2003).

How the values were obtained:
sAPP [1] = assay: sAPP secretion in age-matched control fibroblasts (immunoblot densitometry)
Procedure: (§2) Human fibroblasts were obtained from the Coriell Cell Repositories (Camden N.J.). […] The culture medium was DMEM supplemented with 10% serum (FBS, Gibeo). PC12 cells were obtained from the American Cell Culture Collection and grown to confluence in T75 flasks containing DMEM supplemented with 5% FPS (Gibeo), 10% horse serum (Biofluids) and 1% of a mixture of penicillin (5000 units/ml in G sodium) and streptomycin (5000 μg/ml).
(§3) Complete culture medium was removed just prior to experiments.
(§4) After two hours of incubation, the supernatant was removed and the secreted proteins were precipitated with 10% TCA and resuspended in Tris-glycine SDS electrophoresis sample buffer (Novex). The samples were boiled for 5 min, subjected to electrophoresis and later to immunoblotting for identification of sAPP.
(§5) Conventional immunoblotting techniques were employed. […] The volume of sample loaded was corrected for total cell protein per flask. Proteins were transferred electrophoretically to nitrocellulose membranes. The membranes were saturated with Blotto blocker (Pierce) and incubated overnight at 4° C. with 1:500 6E10 monoclonal antibody from Senetek. After washing, the membranes were incubated for 1 h at room temperature with the secondary antibody, alkaline phosphatase anti-mouse. IfG (Vector Laboratories) and developed using a BCIP/NBT subtrate kit (Vector Laboratories). The bands were quantitated by densitometric analyses (NIH Image, version 1.6) after obtaining a digital image of each membrane.

sAPP [2] = assay: sAPP secretion in AD fibroblasts (immunoblot densitometry)
Procedure: as §2, §3, §4, §5

[3] = system: fibroblasts from AD patients; assay: TEA-induced [Ca2+] elevation (calcium imaging) in AD fibroblasts
Procedure: (§6) The culture medium in which cells were grown was Dulbecco's modified Eagle's medium (GIBCO) supplemented with 10% fetal calf serum (Biofluids, Inc.).
(§7) Round, 25-mm glass coverslips were flame-polished and placed inside 35-mm Nunc petri dishes. Cells were seeded (ca. 10-15 cells/mm^2) in these petri dishes and used when cell density was equivalent for all cell lines (ca 180 cells/mm^2). […] Briefly, culture medium was removed and cells were washed at least three times with basal salt solution (BSS; in mM: NaCl 140, KCl 5, CaCl2 2.5, MgCl2 1.5, Hepes 10, glucose 5, pH 7.4). The fluorescent probe was loaded by incubating cells in 1 μM fura 2-AM (Molecular Probes) in 1 ml BSS at room temperature (RT). One hour later, cells were washed thoroughly with BSS and 1 ml of fresh BSS was added for [Ca^2+] baseline measurements. […] A 40× Zeiss Fluor (oil immersion) objective lens was used.
A group of cells was treated with the PKC activator benzolactam prior to the TEA challenge. BL was dissolved in dimethyl sulfoxide (DMSO; Sigma) to achieve a final testing concentration of 50 nM when 1 ml of the dissolved BL was added to the dish 1 minute prior to TEA application. […] Seven to ten petri dishes of cells were tested from each cell line for each experimental condition. In almost all the cell lines, a minimum of 100 cells were tested per treatment per cell line (total 9231 cells). There were only three AC cell lines for which the number of cells in a couple of treatment groups was above 65 but below 100. Experiments for each cell line were repeated on at least one separate occasion (minimum 1-week interval). Response in a given cell was characterized as a double-fold increase in baseline [Ca^2+]

[4] = rats, personal communication; cited from earlier work
sAPP [5] = assay: sAPP secretion in PC12 cells (immunoblot densitometry); conditions: for sAPP secretion vs basal level: 10 μM
Procedure: as §2, §3, §4, §5

PKC δ = PKC δ (Homo sapiens, UniProt Q05655); conditions: δ isoform vs α; cited from earlier work
Chain of PKC δ (Q05655 whole entry, canonical isoform): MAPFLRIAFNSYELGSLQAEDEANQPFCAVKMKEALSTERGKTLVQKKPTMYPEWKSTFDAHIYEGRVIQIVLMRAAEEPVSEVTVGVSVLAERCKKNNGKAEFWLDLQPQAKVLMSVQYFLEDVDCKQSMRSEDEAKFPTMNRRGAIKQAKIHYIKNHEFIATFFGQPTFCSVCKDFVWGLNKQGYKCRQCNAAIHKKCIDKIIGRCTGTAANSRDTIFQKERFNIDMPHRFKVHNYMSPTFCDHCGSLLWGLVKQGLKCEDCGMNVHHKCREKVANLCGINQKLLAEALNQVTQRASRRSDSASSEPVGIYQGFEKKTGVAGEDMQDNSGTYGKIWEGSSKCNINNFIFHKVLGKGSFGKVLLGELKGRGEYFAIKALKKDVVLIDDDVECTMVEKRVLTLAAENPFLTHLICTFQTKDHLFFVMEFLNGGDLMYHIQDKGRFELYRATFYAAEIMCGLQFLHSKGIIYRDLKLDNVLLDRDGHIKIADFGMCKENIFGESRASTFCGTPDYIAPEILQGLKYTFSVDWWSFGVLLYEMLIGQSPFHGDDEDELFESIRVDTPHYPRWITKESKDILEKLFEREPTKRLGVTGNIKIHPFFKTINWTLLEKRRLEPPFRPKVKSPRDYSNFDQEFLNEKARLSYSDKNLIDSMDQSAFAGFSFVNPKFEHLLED

PKC α isoform [6] = biological target: T1, PKC α isoform (Homo sapiens, UniProt P17252); assay: Immunoblot of PKC α translocation cytosol to membrane in AD cell lines; type: cell-based; design: endogenous in cells; host or cells: human skin fibroblast lines from AD patients and AC controls; conditions: 50 nM
Procedure: (§1) Cells were grown to confluency (˜90%) in t-75 flasks. […] Fibroblasts were washed twice with ice-cold PBS, scraped in PBS, and collected by low-speed centrifugation. The pellets were resuspended in the following homogenization buffer: 20 mM Tris-HCl, pH 7.5, 2 mM EDTA, 2 mM EGTA, 5 mM DTT, 0.32 M sucrose, 2 mM PMSF, 25 μg/ml leupeptin. Homogenates were immersed in liquid nitrogen, thawed, and centrifuged at 12,000 g for 20 minutes, and the supernatants were used as the cytosolic fraction. The pellets were homogenized in the same buffer containing 1.0% Triton X-100, incubated in ice for 45 minutes, and centrifuged at 12,000 g for 30 minutes. The supernatant from this batch was used as the membranous fraction. […] The membrane was saturated with Blotto blocker (Pierce) by incubating it at RT for an hour. The primary antibody for PKC α isoform (Transduction Laboratories) was diluted (1:1000) in blocking solution and incubated with the membrane for 1 hour at RT. After incubation with the secondary antibody, alkaline phosphatasae antimouse IgG (Vector Laboratories), the membrane was developed using an alkaline phosphatase kit (Vector Laboratories) as per the manufacturer's instructions. The conditions for developing the membranes were kept as similar as possible. […]

[7] = system: age-matched control (AC) fibroblasts; assay: TEA-induced [Ca2+] elevation (calcium imaging) in age-matched control (AC) fibroblasts; conditions: 50 nM, 1 minute
Procedure: as §6, §7
A group of cells was treated with the PKC activator benzolactam prior to the TEA challenge. BL was dissolved in dimethyl sulfoxide (DMSO; Sigma) to achieve a final testing concentration of 50 nM when 1 ml of the dissolved BL was added to the dish 1 minute prior to TEA application. […] Seven to ten petri dishes of cells were tested from each cell line for each experimental condition. In almost all the cell lines, a minimum of 100 cells were tested per treatment per cell line (total 9231 cells). […]

PKC α isoform [8] = biological target: T1, PKC α isoform; assay: Immunoblot of PKC α translocation cytosol to membrane in AC cell lines; type: cell-based; design: endogenous in cells; host or cells: human skin fibroblast lines from AC controls; conditions: AC cells, 50 nM
Procedure: as §1

[9] = system: 113 pS TEA-sensitive K+ channel; assay: Patch-clamp single-channel recording in AD cell line AG06848; type: cell-based, human
Procedure: Patch-claim experiments were performed on 13 separate replicate representative experiments in a well-characterized AD cell line (AG06848) which is normally silent for the 113 pS TEA-sensitive K^+ channel (Etcheberrigaray et al., 1993). The experiment was performed at room temperature (21-23° C.) following standard procedures (Sakmann & Neher, 1983). The culture medium was replaced with the following solution (mM, NaCl 150, KCl 5, CaCl2 2, MgCl2 1, Hepes (NaOH) 10, pH 7.4, prior to recording. Benzolactam was added to a dish after ensuring that the patch is silent for the II 3 pS K^+ channel. The recording electrodes, filled with a high-K^+ solution (mM), KCl 140, CaCl2 2, MgCl2 1, Hepes (NaOH) 10, pH 7.4, were made from Blu Tip capillary tubes (i.d. 1.1-1.2 mm; Oxford Labware) by using a BB-CH-PC Mecanex puller to obtain pipette resistances that were ˜6 MΩ. An Axopath-IC amplifier was used to obtain records and a JVC Vetter PCM videorecorder was used to store the data on tape. The data were acquired and analyzed on a personal computer with a pClamp suite of programs by transferring the information via an Axolab interface from the amplifier. All three components-amplifier, interface, and software-were obtained from Axon Instruments (Foster City, Calif.).

PKC ε = biological target: T2, PKC ε (Homo sapiens, UniProt Q02156); conditions: ε isoform vs α; cited from earlier work
T2 sequence (Q02156 1-737): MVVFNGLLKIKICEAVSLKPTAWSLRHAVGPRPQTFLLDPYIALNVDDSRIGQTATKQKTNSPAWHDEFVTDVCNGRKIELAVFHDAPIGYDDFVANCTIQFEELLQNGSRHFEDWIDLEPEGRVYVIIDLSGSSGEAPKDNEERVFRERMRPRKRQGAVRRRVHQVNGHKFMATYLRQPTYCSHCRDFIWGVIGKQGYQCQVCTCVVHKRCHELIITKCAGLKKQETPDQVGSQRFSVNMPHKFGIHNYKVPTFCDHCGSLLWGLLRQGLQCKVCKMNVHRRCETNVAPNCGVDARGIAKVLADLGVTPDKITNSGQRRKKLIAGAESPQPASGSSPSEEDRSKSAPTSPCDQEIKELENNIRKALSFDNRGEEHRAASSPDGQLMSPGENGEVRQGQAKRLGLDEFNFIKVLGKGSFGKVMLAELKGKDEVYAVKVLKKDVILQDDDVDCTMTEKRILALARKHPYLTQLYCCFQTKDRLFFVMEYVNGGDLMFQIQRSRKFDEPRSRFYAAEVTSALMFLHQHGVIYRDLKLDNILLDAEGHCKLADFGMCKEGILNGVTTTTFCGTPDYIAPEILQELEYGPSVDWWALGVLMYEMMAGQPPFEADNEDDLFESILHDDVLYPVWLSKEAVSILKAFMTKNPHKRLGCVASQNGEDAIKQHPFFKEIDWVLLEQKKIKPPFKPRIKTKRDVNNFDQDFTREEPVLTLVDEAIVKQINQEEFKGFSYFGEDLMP

## CN[C@@H]1C[C@H]2O[C@@](C)([C@@H]1OC)n1c3ccccc3c3c4c(c5c6ccccc6n2c5c31)C(=O)NC4 [staurosporine]
sAPP [1]; age-matched control cell lines
  sAPP secretion, staurosporine alone: without effect
sAPP [1]; age-matched control cell lines, 0.5 μM staurosporine pretreatment
  effect on increase in sAPP secretion caused by 10 μM BL: effective in preventing
sAPP [2]; AD cell lines, 0.5 μM staurosporine 30 min prior to BL
  effect on BL-induced sAPP secretion: completely prevented
sAPP [2]; staurosporine pretreatment, data not shown
  effect on phorbol (PDBu)-induced sAPP secretion: significantly reduced

## CCCC(=O)O[C@@H]1[C@@H](C)[C@@]2(O)[C@@H](C=C(CO)C[C@]3(O)C(=O)C(C)=C[C@@H]23)[C@@H]2C(C)(C)[C@]12OC(=O)CCC [PDBu, phorbol 12,13-dibutyrate]
sAPP [1]; age-matched control cell lines, 0.5, 1 and 10 μM
  sAPP secretion vs basal: statistical significance was not reached
[3]; AD cells, 50 nM, 45 minutes
  TEA response vs 4α-PHR-treated cells: did not differ
[3]; AD cells, 1 and 15 minutes incubation
  TEA response, shorter incubation times: without effect
sAPP [2]; AD cell lines, 0.5 μM, 2 h
  sAPP secretion vs basal: maximal at 500 nM
sAPP [2]; AD cell lines, 0.5, 1 and 10 μM, 2 h
  sAPP secretion vs basal: statistically significant increases

## CCCCCCCCC#Cc1ccc2c(c1)C[C@@H](CO)NC(=O)[C@H](C(C)C)N2C [BL, (2S, 5S)-8-(1′-decynyl)benzolactam]
[4]
  antitumoral activity: shows antitumoral activity
sAPP [5]
  sAPP secretion: ~3 fold
  sAPP secretion vs basal level: significantly increased
PKC δ
  affinity lower than for PKC α: at least 10 fold
PKC α isoform [6]; 1 minute
  redistribution of PKC α from cytosol to membrane vs basal ratio: pronounced redistribution
PKC α isoform [6]; 15 minutes
  PKC α particulate/soluble ratio: 1.156
[7]
  percentage of response to TEA vs untreated or DMSO-treated cells: did not differ
[3]; AD cell lines, 50 nM, 1 minute
  percentage of cells responding to TEA vs untreated and DMSO-treated controls: significantly increased
[3]; AD cells treated with BL (50 nM, 1 minute) before 100 mM TEA
  percentage of cells responding to TEA: 19.58%
PKC α isoform [8]; 1 minute
  PKC translocation vs basal levels: ns
PKC α isoform [8]; 15 minutes
  PKC α particulate/soluble ratio: 1.72
[9]; AD cell line AG06848, 1 minute BL treatment
  K+ channel activity after BL activation: 54%
[9]; of 13 recordings silent before BL, 1 minute BL treatment
  cells showing unambiguous 113 pS K+ channel: 7
PKC ε
  affinity lower than for PKC α: at least 10 fold
sAPP [2]; AD cell lines, 0.5 μM, 2 h
  sAPP secretion vs basal: did not reach statistical significance
sAPP [2]; AD cell lines, 1 μM, 2 h
  sAPP secretion vs basal, post test significance: significance level of p<0.001
sAPP [2]; AD cell lines, 10 μM, 2 h
  sAPP secretion over basal: almost three-fold increase

## CCCCCCCCCCCC(=O)Oc1ccc([C@H]2[C@@H](C(C)C)C(=O)N[C@@H]2CO)c2ccccc12 [LQ12]
sAPP [5]
  sAPP secretion vs basal level: significantly increased
